Laboratory results reported in patent publication US7074768B2, “Modified protein kinase A-specific oligonucleotides and methods of their use” (Idera Pharmaceuticals, Inc., priority 1995, dated 2006).

Legend:
[1] = system: GEO colon cancer xenografts; assay: GEO colon cancer xenografts in nude mice (tumor growth, survival); assay type: in vivo; settings: for inhibition of tumor growth: 10 mg/kg/dose
Description: We investigated the antitumor activity of HYB 165 (AS RIα) in nude mice bearing GEO colon cancer xenografts, using either the intraperitoneal (i.p.) or the oral route of administration. When established GEO tumors of approximately […] were detectable, groups of 10 mice were treated i.p. with either HYB 165 or a control modified backbone oligonucleotide with a scrambled sequence, at 5 or 10 mg/kg/dose, daily on days 7 to 11 and 14 to 18. […] The control oligonucleotide produced no inhibition at 10 mg/kg/dose.
Following oral administration, modified backbone oligonucleotides (MBOs) are absorbed in the upper and lower part of the GI tract and distributed to major organs (S. Agrawal and R. Zhang, In: Antisense Research and Application, S. T. Crooke, ed.), Handbook of Experimental Pharmacology, Springer, Berlin, p. 525–543 (1998). Therefore, HYB 165 and the control oligonucleotide were administered to GEO tumor-bearing mice as described above, except that HYB 165 and the control oligonucleotide were administered orally.
On day 7 after tumor cell injection, one group of 10 mice was treated with taxol (20 mg/kg/dose, i.p.), and the treatment was repeated every 2 weeks (on day 21 and day 35) for a total of three cycles. Two other groups of mice were treated with either HYB 165 (AS RIα) or a control MBO with a scrambled sequence (10 mg/kg/dose, p.o.), daily for five days (days 8–12). Treatment was repeated every 2 weeks (days 22–26 and days 36–40) for a total of three cycles. Two more groups of mice were treated with taxol and either HYB 165 or the control MBO, administering the taxol (20 mg/kg/dose, i.p.) on day 7, followed by oral administration of either HYB 165 or the control MBO daily for five days (days 8–12). The sequential treatment was repeated with the same schedule every 2 weeks for a total of three cycles.

[2] = system: ZR75-1 human breast cancer cells; assay: Soft agar growth of ZR75-1 cells; assay type: cell-based; settings: for inhibition of cell growth: every 48 hours for three times (Examples 24, 25)
Description: (§1) Cells (10^4 cells/well) were seeded in 0.5 ml of 0.3% Difco Noble agar (Difco, Detroit, Mich.) supplemented with complete culture medium. This suspension was layered over 0.5 ml of 0.8% agar-medium base layer in 24 multiwell cluster dishes (Becton Dickinson) and treated with various concentrations of docetaxel (day 0). […] Twelve days after the last treatment, cells were stained with nitroblue tetrazolium (Sigma) and colonies larger than 0.05 mm were counted.
as §1
(§2) Soft agar growth. Cells (10^4 cells/well) were seeded in 0.5 ml of 0.3% Difco Noble agar (Difco, Detroit, Mich.) supplemented with complete culture medium. This suspension was layered over 0.5 ml of 0.8% agar-medium base layer in 24 multiwell cluster dishes (Becton Dickinson) and treated with various concentrations of docetaxel (day 0). The HYB 165 was added after 12 hrs (day 1) and on day 3. Twelve days after the last treatment, cells were stained with nitroblue tetrazolium (Sigma) and colonies larger than 0.05 mm were counted.
as §2, with “508” for “165”, “hrs” for “hrs (day 1)”, “2, 3 and 4. After 12” for “3. Twelve”, “days” for “days after”, “the” for “the last treatment,”
Soft agar growth. Cells (10^4 cells/well) were seeded in 0.5 ml of 0.3% Difco Noble agar (Difco, Detroit, Mich.) supplemented with complete culture medium. […] After 12 days the cells were stained with nitroblue tetrazolium (Sigma) and colonies larger than 0.05 mm were counted.
as §2, with “of” for “of docetaxel (day 0). The”, “or HYB295 every 48 hours for three times. After” for “was added after”, “12” for “12 hrs (day 1) and on day 3. Twelve”, “days” for “days after”, “the” for “the last treatment,”, “(Sigma, St. Louis, Mo.)” for “(Sigma)”
as §2, with “of” for “of docetaxel (day 0). The”, “or HYB508 every 48 hours for three times. After” for “was added after”, “12” for “12 hrs (day 1) and on day 3. Twelve”, “days” for “days after”, “the” for “the last treatment,”, “(Sigma, St. Louis, Mo.)” for “(Sigma)”

In the case of “HYB 165: Hybrid 18-mer mixed backbone antisense to PKA RIα, GCGUGCCTCCTCACUGGC (SEQ ID NO:4), 2-O-methyl ribonucleotides at 5′ and 3′ ends (sugars by position and backbone not given here; 2'-O-methyl ribonucleotides at both ends, mixed backbone)”, the “inhibition of tumor size” value ([1]; 10 mg/kg/dose p.o., at the completion of the three cycles of treatment) was “over 50%”, the tumor growth ([1]; MBO 10 mg/kg/dose p.o. in combination with taxol 20 mg/kg/dose i.p., three cycles) was “marked and sustained inhibition of tumor growth” and the survival ([1]; MBO p.o. in combination with taxol i.p., three cycles) was “prolonged mouse life span”. For the same substance, the “tolerability (weight loss, signs of acute or delayed toxicity)” value ([1]; combined treatment with taxol and HYB 165) was “well tolerated”, the “inhibition of tumor growth” value ([1]; i.p., daily on days 7 to 11 and 14 to 18, FIG. 16A) was “up to 40%” and the “inhibition of tumor growth” value ([1]; oral, two cycles, vs untreated mice, FIG. 16B) was “about 60%”. The tumor growth ([1]; single agent, three cycles (taxol 20 mg/kg/dose i.p.; MBO 10 mg/kg/dose p.o.), FIG. 17A) was “inhibited tumor growth”, the survival time ([1]; single agent, three cycles, FIG. 17B) was “increased survival time as compared to the control group” and the “time of very slow tumor growth following the end of treatment” value ([1]; taxol 20 mg/kg/dose i.p. and HYB 165 10 mg/kg/dose p.o., three cycles) was “approximately 60 days”. The “mice still alive after 15 weeks” value ([1]; taxol and HYB 165 in combination) was “about 50%”, the “inhibition of cell growth” value ([2]; 0.1 μM) was “approximately 5%” and the “inhibition of cell growth” value ([2]; 1 μM) was “about 34%”. The “inhibition of cell growth” value ([2]; 2.5 μM) was “over 85%”, the growth inhibition ([2]; HYB 165 0.1 μM + C225 0.25 μg/ml (days 1, 3) after docetaxel 0.01 nM (day 0)) was 93% and the growth inhibition ([2]; HYB 165 0.1 μM + MAb C225 0.25 μg/ml) was 37%. For the same substance, the growth inhibition ([2]; HYB 165 0.1 μM + MAb C225 0.5 μg/ml) was 65%, the growth inhibition ([2]; HYB 165 0.1 μM + MAb C225 1 μg/ml) was 85% and the growth inhibition ([2]; HYB 165 0.1 μM + MAb C225 2.5 μg/ml) was 90%. It also gave a growth inhibition ([2]; HYB 165 0.1 μM after docetaxel 0.01 nM) of 40%, a growth inhibition ([2]; HYB 165 0.1 μM after docetaxel 0.03 nM) of 70% and a growth inhibition ([2]; HYB 165 0.1 μM after docetaxel 0.1 nM) of 86%. The growth inhibition ([2]; HYB 165 0.1 μM after docetaxel 0.3 nM) was 97%, the growth inhibition ([2]; HYB 165 0.1 μM alone (Example 13)) was “about 8%” and the growth inhibition ([2]; HYB 165 0.1 μM alone (Example 21)) was “about 5%”. For the same substance, the growth inhibition ([2]; HYB 165 0.1 μM alone (Example 23)) was “about 2%”, the growth inhibition ([2]; HYB 165 0.5 μM + MAb C225 0.25 μg/ml) was 57% and the growth inhibition ([2]; HYB 165 0.5 μM + MAb C225 0.5 μg/ml) was 70%. For the same substance, the growth inhibition ([2]; HYB 165 0.5 μM + MAb C225 1 μg/ml) was 90%, the growth inhibition ([2]; HYB 165 0.5 μM + MAb C225 2.5 μg/ml) was 98% and the growth inhibition ([2]; HYB 165 0.5 μM after docetaxel 0.01 nM) was 65%. For the same substance, the growth inhibition ([2]; HYB 165 0.5 μM after docetaxel 0.03 nM) was 66%, the growth inhibition ([2]; HYB 165 0.5 μM after docetaxel 0.3 nM) was 99% and the growth inhibition ([2]; HYB 165 0.5 μM after docetaxel 0.1 1 nM) was 86%. For the same substance, the growth inhibition ([2]; HYB 165 0.5 μM alone (Example 21)) was “about 15%”, the growth inhibition ([2]; HYB 165 0.5 μM alone (Example 23)) was “about 10%” and the “cooperative effect of the combination” value ([2]; sequential combination with different doses of docetaxel) was “cooperatively inhibits the growth of ZR75-1 cells”. The “cooperative effect of the combination” value ([2]; with MAb C225 0.25 μg/ml and docetaxel 0.01 nM) was “cooperatively inhibit the growth of ZR75-1 cells” and the “cooperative effect of the combination” value ([2]; with different doses of MAb C225) was “cooperatively inhibit the growth of ZR-75-1 cells”.
